{"source": "patent US9656981B2", "about": "“Peripherally-acting cannabinoid receptor agonists for chronic pain” (The Regents of the University of California, priority 2012, dated 2017)", "key": {"rats [1]": {"test_system": "rats", "test": "Hypothermia test of the tetrad", "type": "in vivo, rat", "procedure": "Rats are acclimated to a plastic restrainer apparatus (Model RTV-180 Braintree Scientific Inc.) on the day of testing by placing them in the restrainer twice for 5 min separated by 20 min. Baseline core temperature is taken before treatment, and the rectal temperature is measured again at various times after injection of the CB1R ligands."}, "[2]": {"test": "S9 fraction stability assay", "type": "in vitro ADME", "conditions": "30 min; rat liver S9, 10 μM", "procedure": "Compounds are incubated at 10 μM in rat (male Sprague Dawley) liver S9 at 37° C. Each compound is prepared in ethanol at a concentration of 1 mM. An assay mixture containing S9 (1 mg protein/mL final concentration) and an NADPH regenerating system (NADP [1 mM final], glucose 6-phosphate [5 mM final] and glucose 6-phosphate dehydrogenase [1 U/mL final]) in a buffer consisting of 50 mM KPO4 phosphate buffer, pH 7.4 with 3 mM MgCl2 is prepared and preincubated at 37° C. for 5 min. A 10 μL volume of the 1 mM solution is added to 990 μL of assay mixture in a glass test tube @ 37° C. to initiate the assay. Samples (50 μL) are removed at 0, 15, 30, 60 and 120 min and immediately extracted with 3 volumes (150 μL) of methanol, centrifuged to pellet protein and supernatants transferred to LC/MS vials for analysis."}, "rats [3]": {"test_system": "rats", "test": "Rotarod test of the tetrad", "type": "in vivo, rat", "procedure": "Rats were tested for motor function and the ataxic effects of novel drugs as described previously^151-153. To determine drug effects on motor coordination, rats are trained 72 h before the test (3 sessions 24 h apart) to remain for at least 180 s on a rotarod revolving at an acceleration of 4-40 revs over 5 min). Rats are tested immediately before vehicle or drug injections and tested again at 2, 6, 24 and 48 hrs after injection. The time for which the rats are able to remain on the rotarod is recorded up to a cut-off of 5 min."}, "[4]": {"test_system": "sciatic nerve entrapment (SNE) neuropathy", "test": "SNE neuropathy, mechanical allodynia (von Frey)", "type": "in vivo, rat", "procedure": "The effectiveness of CBR agonists was tested for alleviating the painful symptoms of neuropathy induced by unilateral sciatic nerve entrapment (SNE)^131. The peripheral neuropathy induced by SNE is highly comparative to that of chronic constriction injury (CCI), which uses chromic gut suture materials instead of polyethylene cuffs^132. […] This increased excitability is at least in part attributable to injury-induced post-transcriptional transport of the voltage-gated sodium channel 1.8 (NaV1.8) mRNA, axonal accumulation of NaV1.8 mRNA, and its local protein translation leading to the increased NaV1.8 functional expression in injured nerve^136. The hyperexcitability and ectopic burst discharge of primary sensory neurons are widely considered to be the major contributors to pain symptomatology of peripheral neuropathy models. The SNE-induced mechanical allodynia effectively models the most common complaint of human neuropathy patients of dynamic mechanical allodynia. Behavioral measurements of mechanical sensitivity were conducted before and after induction of SNE as follows:\n(§1) Rats are placed in a plastic-walled cage (10×20×13 cm) with a metal mesh floor (0.6×0.6 cm holes) and allowed to acclimate for 10 min. The amount of pressure (g) needed to evoke a hindpaw withdrawal response is measured 4 times on each paw separated by 30-s intervals using a von Frey-type digital meter (Model 1601C, IITC Instr.). Results of 4 tests/session are averaged for each paw."}, "CB2R": {"molecular_target": "CB2R (Homo sapiens, UniProt P34972)", "sequence (P34972 whole entry)": "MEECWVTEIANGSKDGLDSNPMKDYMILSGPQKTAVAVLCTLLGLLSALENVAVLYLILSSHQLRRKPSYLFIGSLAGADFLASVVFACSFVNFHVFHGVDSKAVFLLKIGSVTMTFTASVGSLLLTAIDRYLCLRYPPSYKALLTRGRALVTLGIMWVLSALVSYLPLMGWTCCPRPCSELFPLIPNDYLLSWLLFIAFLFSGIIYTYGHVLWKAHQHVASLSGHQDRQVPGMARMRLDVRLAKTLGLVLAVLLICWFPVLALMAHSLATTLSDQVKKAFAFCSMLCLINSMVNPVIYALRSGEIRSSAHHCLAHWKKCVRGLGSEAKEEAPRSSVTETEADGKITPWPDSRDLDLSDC", "test": "CB2R radioligand displacement binding assay (CP55940 radioligand)", "conditions": "Table 1; CP55940 radioligand; read-out: CB2_KI_CP"}, "[5]": {"test_system": "CFA-induced mechanical allodynia", "test": "CFA chronic inflammation, mechanical allodynia", "type": "in vivo, rat", "conditions": "systemic injection", "procedure": "as §1\nCompounds were tested in a well-established model of chronic inflammation. In this model, unilateral intraplantar injection of complete Freund's adjuvant (CFA) leads to long-lasting symptoms of mechanical allodynia and thermal hyperalgesia of the affected hindpaw, which is alleviated by local, […] administration of CB1R ligands^125, 155. […] This is consistent with the higher CB1R affinity of our novel compound 13339-145-35 (Compound 9, see Table 1) compared with the AstraZeneca AZ11713908 compound^125."}, "[6]": {"test": "Pharmacokinetic profiling: plasma, CSF and brain levels by LC-MS/MS", "type": "in vivo, rat", "procedure": "Pharmacokinetic profiling of novel compounds is prerequisite to their clinical development. […] Plasma, cerebrospinal fluid (CSF), and brain samples were analyzed by LC-MS/MS and quantified using standard curves prepared from appropriate drug dilutions in fluids obtained from untreated animals.\nMeasurements of brain levels are a must for putative peripherally-restricted analogs. Total brain levels include drug partitioned into brain lipids+unbound drug in equilibrium with extracellular fluid. Therefore, cerebrospinal fluid (CSF)/plasma ratios are considered to be more precise estimates of brain penetration of a given drug because of the continuity of CSF with extracellular space^174. However, both measures are needed to confirm minimal CNS access and to compare with other reported peripherally-restricted CB1R ligands^110, 111. […] Plasma, brain and CSF samples were obtained at ˜75 min after PrNMI administration. Data presented as mean±SEM, n=3 rats."}}, "note": "Entries after “also recorded” stand apart in the source; their conditions may differ.", "data": [{"smiles": "CCCc1ccc(/C=C2\\C=C(CCN3CCOCC3)c3ccccc32)c2ccccc12", "note": "[Compound 9, 4-{2-[(1E)-1-[(4-propylnaphthalen-1-yl)methylidene]-1H-inden-3-yl]ethyl} morpholine]", "values": [{"measurement": "effect in the hypothermia assay", "setting": "rats [1]; 0.3 mg/kg, intraperitoneal", "result": "no effect"}, {"measurement": "Hypothermia % change from predrug (0.3 mg/kg) at 2-3 hr", "setting": "rats [1]; 2-3 hr", "result": 0, "unit": "%"}, {"measurement": "S9% remaining @ xy min", "setting": "[2]", "result": 39, "unit": "%"}, {"measurement": "effect in the rotarod assay", "setting": "rats [3]; 0.3 mg/kg, intraperitoneal, listed as 13339-145-35", "result": "no effect; also recorded: complete lack of effects"}, {"measurement": "Rotarod % change from pre-drug (0.3 mg/kg) at 2-3 hr", "setting": "rats [3]; 2-3 hr", "result": 0, "unit": "%"}, {"measurement": "effect on SNE-induced mechanical allodynia (ipsilateral hindpaw withdrawal thresholds)", "setting": "[4]; 0.3 mg/kg, systemic injection", "result": "large, reversible increases"}, {"measurement": "SNE Neuropath Assay-% return to pre-drug (0.3 mg/kg) contralateal threshold at 2-3 h", "setting": "[4]; 0.3 mg/kg, 2-3 h", "result": 110, "unit": "%"}, {"measurement": "effect on contralateral hindpaw withdrawal thresholds", "setting": "[4]; 0.3 mg/kg, hindpaw contralateral to SNE", "result": "small, but significant increases"}, {"measurement": "effect on SNE-induced mechanical allodynia", "setting": "[4]; 0.6 mg/kg", "result": "Suppression of SNE-induced mechanical allodynia"}, {"measurement": "suppression of neuropathy symptoms after oral administration", "setting": "[4]; 3 mg/kg, gavage", "result": "effective in suppressing neuropathy symptoms"}, {"measurement": "anti-allodynic effects at the 24 hr time point after oral administration", "setting": "[4]; 3 mg/kg, gavage, 24 hr", "result": "potent anti-allodynic effects"}, {"measurement": "Ki", "setting": "CB2R", "result": 1, "unit": "nM"}, {"measurement": "effect on CFA-induced mechanical allodynia", "setting": "[5]", "result": "small but significant relief"}, {"measurement": "penetration into the CNS after systemic administration", "setting": "[6]; plasma, brain and CSF samples", "result": "minimal penetration"}, {"measurement": "Kp", "setting": "[6]; rat, CSF and plasma, intraperitoneal, 0.3 mg/kg, i.p., ~75 min after administration, mean±SEM, n=3 rats", "result": "0.001 ± 0.0005"}, {"measurement": "Kp at 1.25 h", "setting": "[6]; rat, brain and plasma, ip, 0.3 mg/kg, i.p., ~75 min after administration, mean±SEM, n=3 rats", "result": "0.182 ± 0.043"}]}]}
